Values joined by “and” are separate entries in the source; they are usually repeats but may differ in a detail not shown here. Equal entries are not always repeated. Where two headings read alike, the source gives them in different places.
Test: Single dose oral PK study in male Sprague Dawley rats (plasma by LC-MS/MS)
Format: in vivo
Details: for AUC(0-inf) / AUC(0-t) / half-life / Cmax / MRT last: po; for AUC(0-inf): read-out: AUCinf of PRX-P5-006; for AUC(0-t): read-out: AUClast of PRX-P5-006; for half-life: read-out: T1/2 of PRX-P5-006 (converted); for MRT last: read-out: MRTlast of PRX-P5-006
Procedure: We describe here PK results of prodrugs of PRX-002 (−) or (+) isomers. All doses of prodrugs were administered such that they were equivalent to 5 mg/kg of PRX-002 (−) or (+) for oral studies and 2 mg/kg PRX-002 (−) or (+) for intravenous studies in male Sprague-Dawley (MSD) rats. Higher doses of up to 10 or 15 mg/kg [again equivalent to PRX-002 (−)] were used in some studies (as specified)]. Formulation preparation, dose administration and time of sample collection was as follows.
Test item was weighed [5 mg equivalent dose of PRX-002 for prodrugs] and transferred to a graduated tube. Then 10 μL of Tween 80 was added and vortexed mixed until the test item was completely mixed. Small volume of 0.5% (w/v) carboxymethylcellulose in water solution was then added dropwise with continuous vortex mixing until a uniform suspension was obtained. The final volume was then made up to 10 mL with 0.5% (w/v) carboxymethylcellulose in water with final strength of 0.5 mg/mL. […] This formulation was freshly prepared before the administration to animals.
(§1) Adult male Sprague Dawley Rats aged 8-10 weeks were used for the study. Fasted animals were administered test item by oral route with a dose of 5 mg/kg body weight at dose volume of 10 mL/kg body weight. Under mild isoflurane anesthesia, blood specimens were collected by retro-orbital puncture method using capillary tubes into pre-labeled tubes containing anticoagulant (K2EDTA-2 mg/mL blood) during the next 24 hours of post dose as mentioned in below table. For blood sampling at multiple time points, right and left eyes were used alternatively for blood collection. Collected blood specimens were centrifuged at 4000 rpm, 4° C. for 10 minutes and plasma were separated and stored at −80° C. until analysis.
Blood was collected as outlined in Table 39.1 (oral).
(§2) Test item PRX-P4-003 was weighed and transferred to a graduated tube. Then 12.42 μL of Tween 80 was added and vortexed mixed until the test item was completely mixed. Small volume of 0.5% (w/v) Carboxymethylcellulose in water solution was then added dropwise with continuous vortex mixing until a uniform suspension was obtained. The final volume was then made up to 12.42 mL with 0.5% (w/v) Carboxymethylcellulose in water with final strength of 1.0 mgA/mL. […] This formulation was freshly prepared before the administration to animals.
as §1, with “with a PRX-P4-003” for “test item”, “10” for “5”
as §2, with “PRX-P5-006” for “PRX-P4-003”, “10” for “12.42”, “3.97 mg/mL.” for “1.0 mgA/mL.”
Adult male Sprague Dawley Rats aged 8-10 weeks were used for the study. Fasted animals were administered with a PRX-P5-006 by oral route with a dose of 15 mg/kg body weight at dose volume of 10 mL/kg body weight. […]

[1] = PRX-P5-006 oral 5 mg/kg b.w., individual animals, 5 mg/kg
[2] = PRX-P5-006 oral 5 mg/kg, mean, 5 mg/kg
[3] = male, Sprague Dawley, rat, in vivo, 5 mg/kg, PRX-P5-006 oral 5 mg/kg, mean
[4] = male, Sprague-Dawley, rat, in vivo, 5 mg/kg, PRX-P5-006 oral 5 mg/kg b.w., individual animals

CCCCCCCCCCCCCCCCCC(=O)OC(C)OC(=O)N(CC)C1C2CCC(C2)C1c1ccccc1 (single isomer, unassigned) [PRX-P5-006, N-(1-Octadecanoyloxyethoxycarbonyl)-(−)-N-ethyl-3-phenylbicyclo[2.2.1]heptan-2-amine]
AUC% extrap of PRX-P5-006 [1]: 62.02% and 50.02% and 31.64% | AUCinf of PRX-P5-006 [1]: 132.93 ng·h/mL and 88.37 ng·h/mL | AUClast of PRX-P5-006 [1]: 66.44 ng·h/mL and 60.40 ng·h/mL | Cmax of PRX-P5-006 [1]: 72.65 ng/mL and 67.85 ng/mL | MRTlast of PRX-P5-006 [1]: 1.05 h | T1/2 of PRX-P5-006 [1]: 3.31 h and 1.91 h | AUC% extrap of PRX-P5-006 [2]: 47.896 ± 15.3010% and 47.896% | T1/2 of PRX-P5-006 [2]: 2.907 h | AUC(0-inf) [3]: 115 ± 23.3 ng·h/mL | AUC(0-t) [3]: 57.8 ± 10.2 ng·h/mL | half-life [3]: 2.91 ± 0.865 h | Cmax (male, Sprague Dawley, rat, in vivo, 15 mg/kg, oral 15 mg/kg (footnote *), analyte: prodrug in plasma, mean, read-out: Oral PK Parameters Cmax, Prodrug): 81.6 ± 42.2 ng/mL | Tmax (male, Sprague Dawley, rat, in vivo, oral 5 mg/kg [equivalent to PRX-002 (−)], analyte: prodrug in plasma, mean, read-out: Oral PK Parameters Tmax, Prodrug): 0 h | AUC (male, Sprague Dawley, rat, in vivo, oral 15 mg/kg (footnote *), analyte: prodrug in plasma, mean, read-out: Oral PK Parameters AUC, Prodrug): 477 ± 54.4 ng·h/mL | Tmax (male, Sprague Dawley, rat, in vivo, oral 15 mg/kg (footnote *), analyte: prodrug in plasma, mean, read-out: Oral PK Parameters Tmax, Prodrug): 0.8 ± 0.3 h | AUC(0-inf) [4]: 123 ng·h/mL | AUC(0-t) [4]: 46.6 ng·h/mL | Cmax (male, Sprague-Dawley, rat, in vivo, 5 mg/kg, PRX-P5-006 oral 5 mg/kg b.w., individual animals, read-out: Cmax of PRX-P5-006): 43.9 ng/mL | MRT last [4]: 1.1 h | half-life [4]: 3.5 h | Cmax (male, Sprague-Dawley, rat, in vivo, 5 mg/kg, PRX-P5-006 oral 5 mg/kg, mean, read-out: Cmax of PRX-P5-006): 61.5 ± 15.4 ng/mL | MRT last (male, Sprague-Dawley, rat, in vivo, 5 mg/kg, PRX-P5-006 oral 5 mg/kg, mean): 1.07 ± 0.025 h | Tmax (male, Sprague-Dawley, rat, in vivo, PRX-P5-006 oral 5 mg/kg, mean, read-out: Tmax of PRX-P5-006): 1 h

CCCCCCCCCCCCCCCCCC(=O)OC(C)OC(=O)N(CC)C1C2CCC(C2)C1c1ccccc1 (single isomer, unassigned) [PRX-P5-011, N-(1-Octadecanoyloxyethoxycarbonyl)-(+)-N-ethyl-3-phenylbicyclo[2.2.1]heptan-2-amine]
Plasma concentration of PRX-P5-011 (PRX-P5-011 oral (5 mg/kg equivalent), 0.00 h, individual animals): 0.00 ng/mL | Plasma concentration of PRX-P5-011 (PRX-P5-011 oral (5 mg/kg equivalent), 0.00 h, mean): 0.000 ng/mL | Plasma concentration of PRX-P5-011 (PRX-P5-011 oral (5 mg/kg equivalent), 0.08 h, individual animals): 0.00 ng/mL | Plasma concentration of PRX-P5-011 (PRX-P5-011 oral (5 mg/kg equivalent), 0.08 h, mean): 0.000 ng/mL | Plasma concentration of PRX-P5-011 (PRX-P5-011 oral (5 mg/kg equivalent), 0.25 h, individual animals): 0.00 ng/mL | Plasma concentration of PRX-P5-011 (PRX-P5-011 oral (5 mg/kg equivalent), 0.25 h, mean): 0.000 ng/mL | Plasma concentration of PRX-P5-011 (PRX-P5-011 oral (5 mg/kg equivalent), 0.50 h, individual animals): 0.00 ng/mL | Plasma concentration of PRX-P5-011 (PRX-P5-011 oral (5 mg/kg equivalent), 0.50 h, mean): 0.000 ng/mL | Plasma concentration of PRX-P5-011 (PRX-P5-011 oral (5 mg/kg equivalent), 1.00 h, individual animals): 0.00 ng/mL | Plasma concentration of PRX-P5-011 (PRX-P5-011 oral (5 mg/kg equivalent), 1.00 h, mean): 0.000 ng/mL | Plasma concentration of PRX-P5-011 (PRX-P5-011 oral (5 mg/kg equivalent), 2.00 h, individual animals): 0.00 ng/mL | Plasma concentration of PRX-P5-011 (PRX-P5-011 oral (5 mg/kg equivalent), 2.00 h, mean): 0.000 ng/mL | Plasma concentration of PRX-P5-011 (PRX-P5-011 oral (5 mg/kg equivalent), 4.00 h, individual animals): 0.00 ng/mL | Plasma concentration of PRX-P5-011 (PRX-P5-011 oral (5 mg/kg equivalent), 4.00 h, mean): 0.000 ng/mL | Plasma concentration of PRX-P5-011 (PRX-P5-011 oral (5 mg/kg equivalent), 6.00 h, individual animals): 0.00 ng/mL | Plasma concentration of PRX-P5-011 (PRX-P5-011 oral (5 mg/kg equivalent), 6.00 h, mean): 0.000 ng/mL | Plasma concentration of PRX-P5-011 (PRX-P5-011 oral (5 mg/kg equivalent), 24.00 h, individual animals): 0.00 ng/mL | Plasma concentration of PRX-P5-011 (PRX-P5-011 oral (5 mg/kg equivalent), 24.00 h, mean): 0.000 ng/mL | Active compound PRX-002 (+) in plasma (PRX-P5-011 oral administration): not detected | concentration at 0 h (male, Sprague-Dawley, rat, in vivo, PRX-P5-011 oral (5 mg/kg equivalent), 0.00 h, individual animals, read-out: Plasma concentration of PRX-P5-011): 0 ng/mL | concentration at 0.08 h (male, Sprague-Dawley, rat, in vivo, PRX-P5-011 oral (5 mg/kg equivalent), 0.08 h, individual animals, read-out: Plasma concentration of PRX-P5-011): 0 ng/mL | concentration at 0.25 h (male, Sprague-Dawley, rat, in vivo, PRX-P5-011 oral (5 mg/kg equivalent), 0.25 h, individual animals, read-out: Plasma concentration of PRX-P5-011): 0 ng/mL | concentration at 0.5 h (male, Sprague-Dawley, rat, in vivo, PRX-P5-011 oral (5 mg/kg equivalent), 0.50 h, individual animals, read-out: Plasma concentration of PRX-P5-011): 0 ng/mL | concentration at 1 h (male, Sprague-Dawley, rat, in vivo, PRX-P5-011 oral (5 mg/kg equivalent), 1.00 h, individual animals, read-out: Plasma concentration of PRX-P5-011): 0 ng/mL | concentration at 2 h (male, Sprague-Dawley, rat, in vivo, PRX-P5-011 oral (5 mg/kg equivalent), 2.00 h, individual animals, read-out: Plasma concentration of PRX-P5-011): 0 ng/mL | concentration at 4 h (male, Sprague-Dawley, rat, in vivo, PRX-P5-011 oral (5 mg/kg equivalent), 4.00 h, individual animals, read-out: Plasma concentration of PRX-P5-011): 0 ng/mL | concentration at 6 h (male, Sprague-Dawley, rat, in vivo, PRX-P5-011 oral (5 mg/kg equivalent), 6.00 h, individual animals, read-out: Plasma concentration of PRX-P5-011): 0 ng/mL | concentration at 24 h (male, Sprague-Dawley, rat, in vivo, PRX-P5-011 oral (5 mg/kg equivalent), 24.00 h, individual animals, read-out: Plasma concentration of PRX-P5-011): 0 ng/mL | Oral PK Parameters Tmax, Prodrug (oral 5 mg/kg [equivalent to PRX-002 (−)], analyte: prodrug in plasma, mean): 0 h

Reference: patent US10662146B2, “Prodrugs of fencamfamine” (Praxis Bioresearch, LLC, priority 2015, dated 2020)
